Biological target: T1, human A934T SLACK (Homo sapiens, UniProt Q5JUK3, A915T)
T1 construct: host or cells: CHO-K1
T1 sequence (Q5JUK3 1-1235 isoform Q5JUK3-3 A934T): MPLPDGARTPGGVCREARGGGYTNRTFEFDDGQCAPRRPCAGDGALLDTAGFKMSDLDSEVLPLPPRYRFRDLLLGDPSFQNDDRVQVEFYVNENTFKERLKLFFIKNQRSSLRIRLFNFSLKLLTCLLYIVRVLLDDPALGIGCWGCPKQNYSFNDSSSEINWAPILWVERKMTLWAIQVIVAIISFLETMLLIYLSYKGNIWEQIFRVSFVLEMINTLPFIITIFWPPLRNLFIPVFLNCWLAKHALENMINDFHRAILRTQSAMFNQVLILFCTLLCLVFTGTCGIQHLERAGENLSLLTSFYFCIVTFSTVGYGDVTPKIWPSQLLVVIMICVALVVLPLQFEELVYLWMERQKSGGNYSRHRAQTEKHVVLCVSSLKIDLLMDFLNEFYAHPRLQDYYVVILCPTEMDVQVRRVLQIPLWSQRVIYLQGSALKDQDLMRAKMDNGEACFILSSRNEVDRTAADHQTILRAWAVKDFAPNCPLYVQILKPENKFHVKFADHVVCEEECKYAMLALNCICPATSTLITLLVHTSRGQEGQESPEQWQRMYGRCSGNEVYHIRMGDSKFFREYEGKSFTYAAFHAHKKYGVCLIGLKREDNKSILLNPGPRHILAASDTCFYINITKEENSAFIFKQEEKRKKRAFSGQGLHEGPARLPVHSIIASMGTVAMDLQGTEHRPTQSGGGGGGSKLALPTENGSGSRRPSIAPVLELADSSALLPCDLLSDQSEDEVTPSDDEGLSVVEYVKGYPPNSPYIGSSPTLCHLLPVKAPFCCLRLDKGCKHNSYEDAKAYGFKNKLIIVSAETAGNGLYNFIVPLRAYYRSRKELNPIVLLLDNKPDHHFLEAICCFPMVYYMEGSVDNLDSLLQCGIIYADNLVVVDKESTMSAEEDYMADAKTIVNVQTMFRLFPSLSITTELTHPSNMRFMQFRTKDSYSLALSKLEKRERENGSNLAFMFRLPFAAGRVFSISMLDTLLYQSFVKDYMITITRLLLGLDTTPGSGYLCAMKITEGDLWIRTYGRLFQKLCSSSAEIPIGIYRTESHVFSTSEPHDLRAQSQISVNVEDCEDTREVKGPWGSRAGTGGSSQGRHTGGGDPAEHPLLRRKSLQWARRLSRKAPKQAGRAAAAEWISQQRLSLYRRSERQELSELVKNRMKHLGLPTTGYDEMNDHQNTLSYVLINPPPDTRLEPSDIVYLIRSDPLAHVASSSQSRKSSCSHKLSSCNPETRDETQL
Assay: Whole-cell APC in CHO cells stably expressing human A934T SLACK
Format: cell-based
Details: for IC50: APC, CHO cells; for Imax: maximum inhibition at 30 µM standardized to VU0606170 (100%)
Description: Development of a useful SLACK inhibitor in vivo tool will require potent activity at the corresponding mouse ortholog as studies in appropriate mouse models will be critical. Thus, we evaluated analogs 32 and 48 in our APC assay using CHO cells stably expressing mouse WT SLACK (Table 6). […] We were also eager to evaluate the same compounds with regard to their ability to inhibit clinically relevant GOF SLACK mutants. Both the C-terminus A934T mutant and transmembrane G288S mutant have been associated with clinical cases of EIMFS [3, 7].
Stably transfected monoclonal HEK293 cell lines expressing Slick, Maxi-K α1/β3, Maxi-K α1/β4, CaV3.2, GIRK 1/2, KV2.1, KV7.2, NaV1.7, and TASK-1 were generated as previously described. Stably transfected monoclonal HEK293 cell lines expressing hERG were generated as previously described. CHO-K1 cells expressing human Slack and disease-associated human Slack mutations, G288S and A934T, were generated by transfecting a PiggyBac TRE mammalian expression vector (VectorBuilder, Chicago, IL, USA) containing KCNT1. FuGENE 6 (Promega, Madison, WI, USA) transfection reagent and protocol, together with Opti-MEM (Thermo Fisher Scientific, Walkham, MA, USA), were utilized.
Automated patch-clamp recording was performed with a SyncroPatch 768 PE system (Nanion, Munich, Germany) as previously described. Whole-cell recordings were performed at room temperature. Cells were harvested by first washing with PBS without Mg^2+ or Ca^2+ (Gibco, Billings, MT, USA) to remove cell culture media, followed by dissociation with TryPLE (Gibco, Billings, MT, USA). Cells were then resuspended and diluted to 100,000 cells/mL in external solution. External solution contained 105 mM NaCl, 4 mM KCl, 1 mM MgCl2, 5 mM CaCl2, 10 mM HEPES, and 40 mM N-Methyl-D-glucamine chloride, titrated to pH of 7.4 and osmolarity of 300 mOsm/kg; internal solution contained 70 mM NaCl, 70 mM KF, 10 mM KCl, 5 mM EGTA, and 5 mM HEPES, titrated to a pH of 7.2 and osmolarity of 295 mOsm/kg.
The APC protocol was set as follows: Cells were held at a […] of −80 mV for 100 ms, then a ramp protocol was performed from −100 mV to 80 mV at 0.4 mV/ms, followed by holding the cell at −80 mV for another 100 ms, then steps were performed at −20 mV, 0 mV, +20 mV, +40 mV, and +60 mV for 100 ms of each step. Whole-cell currents were measured at 0 mV and normalized to current after external buffer addition. […] To obtain the concentration-response relationship graphs and IC50 values, we take the median value of the last 7 current amplitude values obtained for each set of data points collected for a given concentration at a particular step.

SMILES | IC50 | Imax
CN(Cc1cccc(F)c1)c1nc2c(c(=O)n(Cc3ccccc3)c(=O)n2C)n1C [Analog 48] | 820 nM | 100%
COc1cccc(Cn2c(=O)c3c(nc(N(C)Cc4ccccc4)n3C)n(C)c2=O)c1 [Analog 32] | 780 nM | 99%
CCCCN(Cc1cccc(F)c1)c1nc2c(c(=O)n(Cc3cccc(OC)c3)c(=O)n2C)n1C [Analog 78] | 350 nM | 

The next lines start with results.

IC50 | SMILES | Imax
590 nM | CCCCN(Cc1ccc(F)cc1)c1nc2c(c(=O)n(Cc3cccc(OC)c3)c(=O)n2C)n1C [Analog 80] | 
1000 nM | COc1cccc(Cn2c(=O)c3c(nc(N(Cc4cccc(F)c4)CC4CC4)n3C)n(C)c2=O)c1 [Analog 79] | 
1200 nM | COc1cccc(Cn2c(=O)c3c(nc(N(Cc4ccc(F)cc4)CC4CC4)n3C)n(C)c2=O)c1 [Analog 81] | 
